This note sets out measurements from patent publication US8232294B2, “Amino ester derivatives, sailts thereof and methods of use” (Sunshine Lake Pharma Co., Ltd., priority 2009, dated 2012).

The test system of one assay is U87MG tumors. Nature of the assay: Human U87MG glioblastoma xenograft tumor model. It is filed as in vivo, female nude mice (BALB/cA nu/nu). The settings on record: 21 days; for decrease of mean tumor volume (TGI): Day 21, vs vehicle. The protocol:
In a pilot study, the efficacy of compounds disclosed herein was evaluated in a standard murine model of tumorigenesis. Human tumor cells were generated with human glioblastoma cells (U87MG cells, ATCC) and were grown as subcutaneous tumors in 6-7 week old female nude mice (BALB/cA nu/nu, Shanghai SLAC Laboratory Animal, Co.) (n=10 for vehicle group, n=8 for each dosing group). When tumors reached a volume of 100-200 mm^3, animals were randomly divided into vehicle control (2% HPMC+1% Tween-80 in water) and compound groups. Subsequent administration of compound by oral gavage (10-100 mpk/dose, dissolved in purified water or 2% HPMC+1% Tween-80 in water) begins anywhere from day 0 to day 15 post tumor cell challenge and generally continues with once a day for the duration of the experiment.
(§1) Progression of tumor growth is assessed by tumor volumes and recorded as a function of time. The long (L) and short (W) axes of the subcutaneous tumors were measured with calipers twice weekly, and the tumor volume (TV) calculated as (L×W^2)/2). TGI was calculated from the difference between the median tumor volumes of vehicle-treated and drug-treated mice, expressed as a percentage of the median tumor volume of the vehicle-treated control group, by the following relation:
(§2) Initial statistical analysis is done by repeated measures analysis of variance (RMANOVA). Followed by Scheffe psot hoc testing for multiple comparisons. Vehicle alone (2% HPMC+1% Tween-80, or the like) is the negative control. Compounds disclosed herein were generally active at or less than 100 mpk.

In a further assay the test system is MKN45 tumors. Nature of the assay: Human MKN45 gastric adenocarcinoma xenograft tumor model. It is filed as in vivo, female nude mice (BALB/cA nu/nu). The settings on record: for decrease of mean tumor volume (TGI): Day 18, vs vehicle. The protocol:
Xenografts were also generated with human gastric tumor cells (MKN45 cells, ATCC) and were grown as subcutaneous tumors in 6-7 week old female nude mice (BALB/cA nu/nu, Shanghai SLAC Laboratory Animal, Co.) (n=10 for vehicle group, n=8 for each dosing group). When tumors reached a volume of 60-150 mm^3, animals were randomly divided into vehicle control (2% HPMC+1% Tween-80 in water) and compound groups. Subsequent administration of compound by oral gavage (10-60 mpk/dose, dissolved in purified water or 2% HPMC+1% Tween-80 in water) begins anywhere from day 0 to day 15 post tumor cell challenge and generally continues with once a day for the duration of the experiment.
as §1, §2
A general note: In xenograft studies the graft and the host belong to different species.

Counter-ions that a name gives are not always drawn.

For the compound `COc1ccc2c(Oc3ccc(NC(=O)c4c(C)n(C[C@@H](C)OC(=O)CN)n(-c5ccccc5)c4=O)cc3F)ccnc2c1` [Example 53, (R)-1-(4-(3-fluoro-4-(7-methoxyquinolin-4-yloxy)phenylcarbamoyl)-5-methyl-3-oxo-2-phenyl-2,3-dihydropyrazol-1-yl)propan-2-yl 2-aminoacetate hydrochloride], the “decrease of mean tumor volume (TGI)” value in the assay with U87MG tumors (10 mg/kg p.o. QD) is 47%; with U87MG tumors (30 mg/kg p.o. QD), 76%; in the assay with U87MG tumors (100 mg/kg p.o. QD) it was 99%. Further, the “inhibition of growth of U87MG tumors” value in the assay with U87MG tumors (all doses: 10, 30 and 100 mg/kg p.o. QD) is on record as “statistically significant, dose-dependent inhibition”.

Regarding `Cc1c(C(=O)Nc2ccc(Oc3ccnc4cc(OCC5(OC(=O)CN)CC5)ccc34)c(F)c2)c(=O)n(-c2ccccc2)n1C` [Example 72, 1-((4-(4-(2,3-dimethyl-5-oxo-1-phenyl-2,5-dihydro-1H-pyrazole-4-carboxamido)-2-fluorophenoxy)quinolin-7-yloxy)methyl)cyclopropyl 2-aminoacetate hydrochloride], the “decrease of mean tumor volume (TGI)” value in the assay on MKN45 tumors (10 mg/kg p.o. QD, 18 days) is recorded as 29%; in the assay with MKN45 tumors (30 mg/kg p.o. QD, 18 days), 62%; in the assay with MKN45 tumors (60 mg/kg p.o. QD (dosed from days 0-10 and days 13-18)), 87%. In addition, the “inhibition of growth of MKN45 tumors” value in the assay with MKN45 tumors (all doses: 10, 30 and 60 mg/kg p.o. QD, 18 days) was “statistically significant, dose-dependent inhibition”.
